Laboratory results published in patent US10981879B2, “Thioether triazolopyridine and triazolopyrimidine inhibitors of myeloperoxidase” (BRISTOL-MYERS SQUIBB COMPANY, priority 2014, dated 2021).

Key:
Assay type in all cases: biochemical
[1] = target: T1, myeloperoxidase (MPO) (Homo sapiens (Human), UniProt P05164); experiment: MPO peroxidation assay (Amplex Red); settings: Table 1
Description: MPO peroxidation activity was measured in 100 mM KPi (pH 7.4) by utilizing the non-fluorescent reagent Amplex Red (Invitrogen catalog #A12222) which can be oxidized to the highly fluorescent resorufin. Amplex Red is oxidized by the peroxidase action of MPO to resorufin. Reactions were carried out in 50 μL total volume by adding a 25 μL mixture of 200 pM myeloperoxidase and 40 nM H2O2 (Sigma #349887) to 100 nL inhibitor in 100% DMSO in a 384 well Perkin Elmer Optiplate. Enzyme and compound were preincubated for ten minutes at rt.
After the ten minute preincubation, 25 μL of an Amplex Red mixture containing 200 μM Amplex Red and 10 mM H2O2 was added to the plate. Kinetic determinations were carried out immediately on a Perkin Elmer Envision (15 minute kinetic read, Ex: 535 nm, Em: 590 nm).
IC50 values were calculated by determining the slope of the linear portion of the kinetic trace (180-540 secs), and using that calculated slope to determine % inhibition occurring at each concentration of inhibitor using the following equation:
[formula] where A=minimal Y value (activity level of inhibited sample), B=maximal Y value (activity level of uninhibited sample), C=Log IC50, D=Hill Slope, x=concentration of inhibitor. MPO Chlorination Assay

[2] = target: T1, myeloperoxidase (MPO); experiment: MPO chlorination assay (APF)
Outline: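 Human MPO (200 pM) with 120 mM NaCl preincubated with inhibitor 10 minutes at rt in 100 mM KPi pH 7.4. Reaction started with APF mixture containing 10 μM H2O2; fluorescein fluorescence (ex 485/em 535 nm) read kinetically 3 minutes. IC50 from slopes of linear kinetic portion, fitted with a four-parameter Hill equation.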

[3] = target: eosinophil peroxidase (EPX) (Homo sapiens (Human), UniProt P11678); experiment: EPX bromination assay
Description: EPX bromination activity was measured in 100 mM KPi (pH 7.4) by monitoring the H2O2 catalyzed formation of 3-bromo tyrosine from tyrosine and potassium bromide. A 50 μl mixture of 0.6 μM EPX (Lee Biosolutions Cat #342-60) was added to 100 nL inhibitor in 100% DMSO in a 384 well REMP plate. Enzyme and compound were preincubated for ten minutes at rt.
After the ten minute preincubation of enzyme and inhibitor, 25 μL of a mixture containing 400 μM tyrosine and 1200 μM potassium bromide was added to the plate containing enzyme and inhibitor, followed by the addition of 25 μl of 20 μM H2O2. The reaction was allowed to proceed for 15 minutes, at which time it was quenched with 10 μL of 20% TCA. The final concentrations of all components were 0.3 μM EPX, 100 μM tyrosine, […], 5 μM H2O2, 0.1% DMSO, 2.0% TCA.
IC50 values were determined by determining the peak areas of 3-bromotyrosine present at the end of the 15 minute reaction and fitting the data to:
[formula] where A=minimal Y value (activity level of inhibited sample), B=maximal Y value (activity level of uninhibited sample), C=Log IC50, D=Hill Slope, x=concentration of inhibitor.
Reversed-phase analysis was performed on a Waters Acquity Ultra Performance LC system using an Acquity UPLC BEH C18 […], 2.1×50 mm analytical column. The column was maintained at 60° C. Samples were eluted using a gradient of 0%-100% B over 2.5 minutes, followed by equilibration with 100% A for 1 minute where A consisted of 0.1% TFA and B consisted of 90% MeOH/0.1% TFA at a flow rate of 0.6 mL/min. The retention time of 3-bromo tyrosine was 1.22 min.

[4] = MPO chlorination assay (APF), Table 1, read-out: APF IC50
[5] = MPO chlorination assay, ranges given, read-out: MPO chlorination assay IC50

T1 sequence (P05164 49-745): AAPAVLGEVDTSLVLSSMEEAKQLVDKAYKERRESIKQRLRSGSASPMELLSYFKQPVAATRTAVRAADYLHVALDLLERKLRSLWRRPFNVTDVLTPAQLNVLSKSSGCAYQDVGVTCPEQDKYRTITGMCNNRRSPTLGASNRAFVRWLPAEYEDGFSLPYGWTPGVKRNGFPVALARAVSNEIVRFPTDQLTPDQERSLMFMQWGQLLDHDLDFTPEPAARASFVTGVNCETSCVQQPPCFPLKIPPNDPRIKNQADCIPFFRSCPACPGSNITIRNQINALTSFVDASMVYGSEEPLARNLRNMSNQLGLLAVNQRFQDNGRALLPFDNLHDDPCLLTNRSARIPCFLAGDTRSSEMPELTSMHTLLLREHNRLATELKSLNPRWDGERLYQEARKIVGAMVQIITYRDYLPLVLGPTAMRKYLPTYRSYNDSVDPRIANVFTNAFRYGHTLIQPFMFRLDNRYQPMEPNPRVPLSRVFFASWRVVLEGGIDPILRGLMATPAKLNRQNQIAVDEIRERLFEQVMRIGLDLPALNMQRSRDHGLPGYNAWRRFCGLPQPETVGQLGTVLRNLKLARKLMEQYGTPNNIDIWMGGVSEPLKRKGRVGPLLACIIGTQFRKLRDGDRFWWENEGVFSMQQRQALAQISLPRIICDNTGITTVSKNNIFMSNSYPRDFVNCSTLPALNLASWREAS
Sequence of eosinophil peroxidase (EPX) (P11678 251-715): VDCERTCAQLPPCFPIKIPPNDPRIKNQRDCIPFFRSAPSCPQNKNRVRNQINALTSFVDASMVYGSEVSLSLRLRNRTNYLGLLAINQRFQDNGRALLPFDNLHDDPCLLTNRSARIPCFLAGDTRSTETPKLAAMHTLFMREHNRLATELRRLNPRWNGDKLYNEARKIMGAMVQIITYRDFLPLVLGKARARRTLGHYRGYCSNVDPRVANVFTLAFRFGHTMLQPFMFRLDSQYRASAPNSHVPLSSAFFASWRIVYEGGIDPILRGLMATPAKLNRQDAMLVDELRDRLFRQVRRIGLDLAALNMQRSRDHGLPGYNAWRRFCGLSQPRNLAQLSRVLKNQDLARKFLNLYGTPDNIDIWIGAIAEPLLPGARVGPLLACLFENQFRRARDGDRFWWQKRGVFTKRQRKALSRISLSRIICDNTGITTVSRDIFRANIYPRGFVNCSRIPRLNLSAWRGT
Sequence of eosinophil peroxidase (EPX) (P11678 140-250): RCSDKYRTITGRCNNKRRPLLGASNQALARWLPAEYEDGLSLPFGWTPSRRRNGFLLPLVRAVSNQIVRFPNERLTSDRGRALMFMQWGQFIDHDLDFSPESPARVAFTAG

| IC50 [1] | IC50 [2, 4] | Compound | IC50 [3] | IC50 [2, 5] |
| --- | --- | --- | --- | --- |
| 20 nM | 10 nM | Nc1cc(SCc2cn(-c3ccccc3)nc2C(F)(F)F)c2nn[nH]c2n1 [Example 113, 7-(((1-phenyl-3-(trifluoromethyl)-1H-pyrazol-4-yl)methyl)thio)-3H-[1,2,3]triazolo[4,5-b] pyridin-5-amine] |  |  |
| 20 nM | 80 nM | Nc1cc(SCc2ccccc2-n2cccn2)c2nn[nH]c2n1 [Example 41, 7-((2-(1H-pyrazol-1-yl)benzyl)thio)-3H-[1,2,3] triazolo[4,5-b]pyridin-5-amine] |  |  |
| 530 nM | 640 nM | Nc1cc(SCc2ccccc2CN2CCC(Oc3ccccc3)C2)c2nn[nH]c2n1 (centres unmarked) [Example 98, 7-((2-((3-phenoxypyrrolidin-1-yl)methyl)benzyl)thio)-3H-[1,2,3]triazolo[4,5-b] pyridin-5-amine] |  |  |
|  |  | Nc1cc(SCc2c(Cl)cccc2Cl)c2nn[nH]c2n1 [Example 11, 7-((2,6-Dichlorobenzyl)thio)-3H-[1,2,3]triazolo[4,5-b]pyridin-5-amine] | 2 nM | ≤ 60 nM |
| 220 nM | 770 nM | CCn1ncc(CSc2nc(N)nc3[nH]nnc23)c1C(F)(F)F [Example 164, 7-(((1-ethyl-5-(trifluoromethyl)-1H-pyrazol-4-yl)methyl)thio)-3H-[1,2,3]triazolo[4,5-d] pyrimidin-5-amine] |  |  |
| 30 nM | 7 nM | Cc1nn(-c2ccccc2)c(Cl)c1CSc1cc(N)nc2[nH]nnc12 [Example 79, 7-(((5-chloro-3-methyl-1-phenyl-1H-pyrazol-4-yl)methyl)thio)-3H-[1,2,3] triazolo[4,5-b]pyridin-5-amine] |  |  |
| 10 nM | 20 nM | Nc1cc(SCc2cc(C(F)(F)F)ccc2C(F)(F)F)c2nn[nH]c2n1 [Example 39, 7-((2,5-bis(trifluoromethyl)benzyl)thio)-3H-[1,2,3] triazolo[4,5-b]pyridin-5-amine] |  |  |
| 790 nM | 570 nM | Nc1nc(SCc2ccccc2CN2CCCC2)c2nn[nH]c2n1 [Example 166, 7-((2-(pyrrolidin-1-ylmethyl)benzyl)thio)-3H-[1,2,3]triazolo[4,5-d] pyrimidin-5-amine] |  |  |
| 20 nM | 80 nM | CCC(Sc1cc(N)nc2[nH]nnc12)c1ccccc1 (centres unmarked) [Example 45, 7-((1-phenylpropyl)thio)-3H-[1,2,3]triazolo[4,5-b] pyridin-5-amine] |  |  |
| 10 nM | 90 nM | CS(=O)(=O)c1ccc(CSc2cc(N)nc3[nH]nnc23)c(Cl)c1 [Example 104, 7-((2-chloro-4-(methylsulfonyl)benzyl)thio)-3H-[1,2,3]triazolo[4,5-b]pyridin-5-amine] |  |  |
| 100 nM | 530 nM | Nc1cc(SCc2cnn(C3CCCCC3)c2C(F)(F)F)c2nn[nH]c2n1 [Example 116, 7-(((1-cyclohexyl-5-(trifluoromethyl)-1H-pyrazol-4-yl)methyl)thio)-3H-[1,2,3]triazolo[4,5-b] pyridin-5-amine] |  |  |
|  |  | Cn1ncc2c(CSc3cc(N)nc4[nH]nnc34)cccc21 [Example 51, 7-(((1-methyl-1H-indazol-4-yl)methyl)thio)-3H-[1,2,3] triazolo[4,5-b]pyridin-5-amine] | 6 nM | 60 to 200 nM |
| 30 nM | 9 nM | N#Cc1ccc(C2CC2)c(CSc2cc(N)nc3[nH]nnc23)c1 [Example 88, 3-(((5-amino-3H-[1,2,3]triazolo[4,5-b]pyridin-7-yl)thio)methyl)-4-cyclopropylbenzonitrile] |  |  |
|  |  | Nc1cc(SCc2ccc(OC(F)(F)F)cc2)c2nn[nH]c2n1 [Example 7, 7-((4-(trifluoromethoxy)benzyl)thio)-3H-[1,2,3] triazolo[4,5-b]pyridin-5-amine] | 20 nM | ≤ 60 nM |
| 20 nM | 80 nM | Nc1cc(SC(CO)c2ccccc2)c2nn[nH]c2n1 (centres unmarked) [Example 126, 2-((5-Amino-3H-[1,2,3]triazolo[4,5-b]pyridin-7-yl)thio)-2-phenylethanol] |  |  |
| 460 nM | 580 nM | Cc1nn(-c2ccc(F)cc2)c(C)c1CSc1cc(N)nc2[nH]nnc12 [Example 72, 7-(((1-(4-fluorophenyl)-3,5-dimethyl-1H-pyrazol-4-yl)methyl)thio)-3H-[1,2,3] triazolo[4,5-b]pyridin-5-amine] |  |  |
| 50 nM | 760 nM | CCOC(=O)c1cc(CSc2cc(N)nc3[nH]nnc23)n(C)n1 [Example 70, ethyl 5-(((5-amino-3H-[1,2,3]triazolo[4,5-b]pyridin-7-yl)thio)methyl)-1-methyl-1H-pyrazole-3-carboxylate] |  |  |
| 40 nM | 80 nM | Nc1cc(SCc2cn(-c3cccnn3)nc2C(F)F)c2nn[nH]c2n1 [Example 144] |  |  |
| 170 nM | 10 nM | Nc1cc(SCc2cn(-c3ccc(N4CCCC4)nc3)nc2C(F)(F)F)c2nn[nH]c2n1 [Example 139] |  |  |
| 10 nM | 20 nM | Nc1cc(SCc2cc(F)ccc2OC(F)(F)F)c2nn[nH]c2n1 [Example 66, 7-((5-fluoro-2-(trifluoromethoxy)benzyl)thio)-3H-[1,2,3]triazolo[4,5-b]pyridin-5-amine] |  |  |
| 140 nM | 610 nM | Cc1ncn(C)c1CSc1cc(N)nc2[nH]nnc12 [Example 77, 7-(((1,4-dimethyl-1H-imidazol-5-yl)methyl)thio)-3H-[1,2,3]triazolo[4,5-b] pyridin-5-amine] |  |  |
| 100 nM | 500 nM | Nc1cc(SCc2ncccn2)c2nn[nH]c2n1 [Example 57, 7-((pyrimidin-2-ylmethyl)thio)-3H-[1,2,3]triazolo[4,5-b]pyridin-5-amine] |  |  |
|  |  | N#Cc1ccc(-n2cccn2)cc1CSc1cc(N)nc2[nH]nnc12 [Example 12, 2-(((5-Amino-3H-[1,2,3]triazolo[4,5-b]pyridin-7-yl)thio)methyl)-4-(1H-pyrazol-1-yl)benzonitrile] |  | ≤ 60 nM |
|  |  | N#Cc1ccc(F)c(CSc2cc(N)nc3[nH]nnc23)c1 [Example 123, 3-(((5-amino-3H-[1,2,3]triazolo[4,5-b]pyridin-7-yl)thio)methyl)-4-fluorobenzonitrile] |  | 60 to 200 nM |
|  |  | CCc1nn(-c2ccccc2)nc1CSc1cc(N)nc2[nH]nnc12 [Example 63, 7-(((5-ethyl-2-phenyl-2H-1,2,3-triazol-4-yl)methyl)thio)-3H-[1,2,3]triazolo[4,5-b]pyridin-5-amine] |  | 60 to 200 nM |
|  |  | Nc1cc(SCc2ccccc2CN2CCC2)c2nn[nH]c2n1 [Example 95, 7-((2-(azetidin-1-ylmethyl)benzyl)thio)-3H-[1,2,3] triazolo[4,5-b]pyridin-5-amine] |  | 60 to 200 nM |
|  |  | N#Cc1cc(F)ccc1CSc1cc(N)nc2[nH]nnc12 [Example 56, 2-(((5-amino-3H-[1,2,3]triazolo[4,5-b]pyridin-7-yl)thio)methyl)-5-fluorobenzonitrile] |  | ≤ 60 nM |
|  |  | Cn1nc(C(F)(F)F)c(CSc2cc(N)nc3[nH]nnc23)c1Cl [Example 78, 7-(((5-chloro-1-methyl-3-(trifluoromethyl)-1H-pyrazol-4-yl)methyl)thio)-3H-[1,2,3]triazolo[4,5-b] pyridin-5-amine] |  | ≤ 60 nM |

| Compound | IC50 [1] | IC50 [2, 4] | IC50 [3] | IC50 [2, 5] |
| --- | --- | --- | --- | --- |
| Nc1cc(SCc2ccccc2F)c2nn[nH]c2n1 [Example 3, 7-((2-fluorobenzyl)thio)-3H-[1,2,3]triazolo [4,5-b]pyridin-5-amine] | 7 nM | 10 nM |  |  |
| Nc1cc(SCc2cc(F)c(-c3ncon3)cc2F)c2nn[nH]c2n1 [Example 28, 7-((2,5-difluoro-4-(1,2,4-oxadiazol-3-yl)benzyl)thio)-3H-[1,2,3]triazolo[4,5-b] pyridin-5-amine] | 10 nM | 80 nM |  |  |
| Nc1cc(SCc2cn(-c3cnccn3)nc2C(F)F)c2nn[nH]c2n1 [Example 145] | 30 nM | 80 nM |  |  |
